In patent publication US9617225B2 (VIROSTATICS SRL, priority 2012, dated 2017):
Where two headings read alike, the source gives them in different places.

How the values were obtained:
[1] = biological target: human CDK9/CyclinT kinase complex (Homo sapiens (Human), UniProt P50750); test: In Vitro CDK9/CyclinT Assay (IMAP fluorescent polarization); assay type: biochemical
Procedure, shortened: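 Phosphorylation of 400 nM TAMRA-Rbtide (15-mer retinoblastoma-derived peptide) by 5 nM CDK9/CyclinT with 12 μM ATP (=Kmapp) in 20 mM MOPS pH 7, 1 mM DTT, 10 mM MgCl2, 0.01% Tween 20. Reaction run 1 hour at room temperature, stopped with IMAP beads; read by fluorescence polarization.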

[2] = test system: laboratory strain of HIV-1; test: Antiviral Activity Against HIV (AV), p24 in infected activated primary T cells; assay type: cell-based; settings: for antiviral and antiproliferative activity and cytotoxicity profile: summary in words; for IC50: read-out: AV50, Table 5
Experimental: Antiviral Activity Against HIV (AV)
Activated primary T cells are infected with a laboratory strain of HIV-1, then cultured and exposed to different concentrations of the test compounds. HIV replication is analysed by measuring the viral protein p24 and expressed as percentage of untreated control. Inhibition of viral replication (AV) is then calculated (AV=100 minus the % p24 compared to control, AV of control=0%). Inhibitory concentration 50% for antiviral activity (AV50) is calculated.

Primary T cells = test: Cytotoxicity, viability by flow cytometry; assay type: cell-based
Experimental: Primary T cells are cultured and treated with different concentrations of the test compound. Viability is analysed by measuring through flow cytometry based techniques the percentage of viable cells, compared to untreated control=100%).

Sequence of human CDK9/CyclinT kinase complex (P50750 whole entry): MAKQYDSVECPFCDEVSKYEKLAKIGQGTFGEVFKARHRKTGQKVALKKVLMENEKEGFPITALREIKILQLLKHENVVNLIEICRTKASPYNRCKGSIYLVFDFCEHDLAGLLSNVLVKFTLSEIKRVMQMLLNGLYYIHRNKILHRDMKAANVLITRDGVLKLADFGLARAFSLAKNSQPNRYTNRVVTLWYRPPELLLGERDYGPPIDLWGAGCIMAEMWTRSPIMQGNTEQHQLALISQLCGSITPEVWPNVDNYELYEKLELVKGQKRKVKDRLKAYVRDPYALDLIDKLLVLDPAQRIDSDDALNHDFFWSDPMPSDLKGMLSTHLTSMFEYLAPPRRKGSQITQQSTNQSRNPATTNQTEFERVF
Sequence of human CDK9/CyclinT kinase complex (O60563 whole entry partner): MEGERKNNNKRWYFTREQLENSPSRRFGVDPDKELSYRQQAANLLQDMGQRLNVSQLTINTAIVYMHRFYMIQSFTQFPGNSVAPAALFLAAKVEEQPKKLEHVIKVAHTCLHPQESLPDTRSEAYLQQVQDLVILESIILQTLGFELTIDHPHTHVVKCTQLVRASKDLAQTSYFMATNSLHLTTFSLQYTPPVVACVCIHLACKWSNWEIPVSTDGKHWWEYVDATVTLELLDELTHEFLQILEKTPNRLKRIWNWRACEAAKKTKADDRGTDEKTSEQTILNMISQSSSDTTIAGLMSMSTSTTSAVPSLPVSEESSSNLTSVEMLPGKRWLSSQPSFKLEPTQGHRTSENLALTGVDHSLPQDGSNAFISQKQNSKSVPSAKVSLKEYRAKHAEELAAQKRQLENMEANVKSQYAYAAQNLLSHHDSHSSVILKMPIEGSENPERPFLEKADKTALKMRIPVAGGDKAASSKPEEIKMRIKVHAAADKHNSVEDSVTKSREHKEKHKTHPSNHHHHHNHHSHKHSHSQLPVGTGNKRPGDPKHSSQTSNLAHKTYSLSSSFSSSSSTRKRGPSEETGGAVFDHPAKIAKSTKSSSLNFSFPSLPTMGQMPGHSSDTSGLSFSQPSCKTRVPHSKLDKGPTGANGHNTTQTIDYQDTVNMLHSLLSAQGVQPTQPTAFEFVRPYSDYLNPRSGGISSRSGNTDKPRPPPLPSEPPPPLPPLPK

SMILES	IC50 [1]	antiviral and antiproliferative activity and cytotoxicity profile [2]	TD50 (Primary T cells)	IC50 ([1]; Table 1)	IC50 [2]	IC50 ([1]; Table 5)
COc1ccc(Nc2cc(-c3ccccc3OC)ncn2)cc1OC(=O)C(C)(C)C [Example 26, 2-methoxy-5-(6-(2-methoxyphenyl)pyrimidin-4-ylamino)phenyl pivalate]	< 10000 nM	good antiviral and antiproliferative activity and a good cytotoxicity profile	6 µM			
COc1ccc(Nc2cc(-c3ccccc3OC)ncn2)cc1Cn1cnc2ccccc21 [Example 31, N-(3-((1H-Benzo[d]imidazol-1-yl)methyl)-4-methoxyphenyl)-6-(2-methoxyphenyl)pyrimidin-4-amine]	< 100 nM	good antiviral and antiproliferative activity and a good cytotoxicity profile	1.8 µM			
COc1ccc(Nc2cc(-c3ccccc3OC)ncn2)cc1O [Example 32, 2-Methoxy-5-(6-(2-methoxyphenyl)pyrimidin-4-ylamino)phenol]		good antiviral and antiproliferative activity and a good cytotoxicity profile	20 µM	< 100 nM		
COc1ccc(Nc2cc(-c3ccccc3OC)ncn2)cc1N [Example 41, 4-Methoxy-N1-(6-(2-methoxyphenyl)pyrimidin-4-yl)benzene-1,3-diamine]	< 1000 nM	good antiviral and antiproliferative activity and a good cytotoxicity profile	8.5 µM			
COc1ccccc1-c1cc(Nc2ccc(N(C)C)c(Cn3cnc4ccccc43)c2)ncn1 [Example 42, 2-((1H-Benzo[d]imidazol-1-yl)methyl)-N4-(6-(2-methoxyphenyl)pyrimidin-4-yl)-N1,N1-dimethylbenzene-1,4-diamine]	< 1000 nM		4 µM		> 5000 nM	
COc1ccc(Nc2cc(-c3ccccc3OC)ncn2)cc1CN [Example 43, N-(3-(Aminomethyl)-4-methoxyphenyl)-6-(2-methoxyphenyl)pyrimidin-4-amine]	< 1000 nM	good antiviral and antiproliferative activity and a good cytotoxicity profile	2 µM		> 1000 nM	
COc1ccc(Nc2cc(-c3ccccc3OC)ncn2)cc1C(N)=O [Example 45, 2-methoxy-5-(6-(2-methoxyphenyl)pyrimidin-4-ylamino)benzamide]	< 100 nM	good antiviral and antiproliferative activity and a good cytotoxicity profile	15 µM			
COc1ccc(Nc2cc(-c3ccccc3OC)ncn2)cc1C(=O)O [Example 49, 2-Methoxy-5-[6-(2-methoxy-phenyl)-pyrimidin-4-ylamino]-benzoic acid]			>10 µM	< 1000 nM	> 10000 nM	< 1000 nM
COc1cc(Nc2cc(-c3ccccc3OC)ncn2)ccc1N [Example 59, 2-Methoxy-N^4-[6-(2-methoxy-phenyl)-pyrimidin-4-yl]-benzene-1,4-diamine]			>2 µM	< 1000 nM	> 2000 nM	< 1000 nM
CCOc1ccccc1-c1cc(Nc2ccc(OC)c(N)c2)ncn1 [Example 62, N^1-[6-(2-Ethoxy-phenyl)-pyrimidin-4-yl]-4-methoxy-benzene-1,3-diamine]		good antiviral and antiproliferative activity and a good cytotoxicity profile	4 µM	< 1000 nM		
